This note sets out measurements from patent US20060014726A1, “Derivatives of cyclic1, 3- propanediol phosphate and their action in differentiation therapy” (priority 2002, published 2006).

In one assay the test system is ER-α in T47D cells. Kind of assay: Western blot analysis of ER-α level in T47D cells. The format is cell-based, human. The settings on record: 15 μM. The protocol: (§1) Turning to FIG. 1 there are shown Western blot analyses showing the effect of 1,3cPP on the expression level of ER-α. In the ER-α assay, MCF-7 cells were incubated with 1-100 μM 1,3cPP for up to 14 days. The analysis indicates a relative increase in the level of wild type ER-α receptor (MW 70,000) with either an increase in 1,3cPP concentration or time of incubation. On days 6 and 14, a nearly 2-fold and 3-fold increase were observed, respectively (FIGS. 1A, C, D, F). […] This band could be related to one of deleted exons D3-4 (MW 49,000), D4 (MW 54,000), or D7 (MW 51,000) ER-α variants.
Breast Cancer Cells. The human breast cancer MCF-7 cell line were obtained from Prof. […] The absence of Mycoplasma contamination was monitored by a Mycotrim TC test (Irvine Scientific, Santa Ana, Calif.) carried out once every 3 months.
(§2) For ER-α protein analysis, MCF-7 and T47D cells were cultured in 60×15 mm petri dishes. […] The protein concentration in each sample (1.5-4 mg/ml) was determined using the Coomassie Protein Assay (Pierce, Rockford, Ill.) according to the manufacturer's instructions. […] Bound antibodies were detected by horseradish peroxidase-conjugated goat anti-rabbit IgG, (Transduction Laboratories, Lexington, Ky. using the ECL detection method. Band densities were quantified by densitometry (Biorad model GS-690 Imaging densitometer) using Molecular Analyst software.
For orientation: A western blot detects proteins with antibodies after separation by electrophoresis.

Assay [1] concerns estrogen receptor-α (ER-α) in MCF-7 cells. Nature of the assay: Western blot analysis of ER-α level in MCF-7 cells. Conditions: MCF-7 cells; for increase in the level of wild type ER-α receptor (MW 70,000): 1-100 μM 1,3cPP. Format: cell-based, human. The protocol:
as §1
(§3) Breast Cancer Cells. The human breast cancer MCF-7 cell line were obtained from Prof. Hadassa Degani, of Weizmann Institute of Science, Rehovot, Israel. The cells were grown as monolayers in high glucose DMEM supplemented with 6% fetal calf serum and combined antibiotics. Human breast cancer T47D cells, clones 8 (ER^loPR^lo) and 11 (ER^+PR^+) were obtained from Prof Iafa Keydar, Tel-Aviv university and were grown in DMEM supplemented with 10% fetakl calf serum antibiotics. K562 erythroleukemia cells were obtained from Dr. Alfa Peled of Weizmann Institute of Science, Rehovot, Israel. These cells were grown in RPMI 1640 containing 10% fetal calf serum and antibiotics. All lines were grown at 37° C. in the presence of 5% CO2. The absence of Mycoplasma contamination was monitored by a Mycotrim TC test (Irvine Scientific, Santa Ana, Calif.) carried out once every 3 months.
For ER-α protein analysis, MCF-7 and T47D cells were cultured in 60×15 mm petri dishes. From the second day of culture onward, the cells were treated with various concentrations of 1,3cPP for up to 14 days. At the end of the incubation period, the medium was aspirated and the cells were washed 3 times with cold (4° C.) PBS. The cells were then gently scraped off using a rubber policeman in 0.25 ml of lysis buffer composed of 50 mM β-glycerophosphate, 1 mM DTT, 1.5 mM EGTA, 1 mM EDTA, 1% (Octylphenoxy)polyethoxyethanol (IGEPAL, Sigma, St. Louis, Mo.), a nonionic detergent, and a cocktail of protease inhibitors, including 1 mM phenylmethylsulfonyl fluoride (PMSF), 1 mM benzamidine, 10 μg/ml aprotinin, 10 μg/ml leupeptin, and 2 μg/ml pepstanin, as well as 1 mM sodium orthovanadate (Sigma, St. Louis, Mo.) as a phosphatase inhibitor. […] The protein concentration in each sample (1.5-4 mg/ml) was determined using the Coomassie Protein Assay (Pierce, Rockford, Ill.) according to the manufacturer's instructions. […] Bound antibodies were detected by horseradish peroxidase-conjugated goat anti-rabbit IgG, (Transduction Laboratories, Lexington, Ky. using the ECL detection method. Band densities were quantified by densitometry (Biorad model GS-690 Imaging densitometer) using Molecular Analyst software.

For assay [2], the system named is T47D human breast cancer cells (clone 11). Kind of assay: Proliferation assay ([3H]thymidine uptake). The format is cell-based. Conditions: T47D clone 11, 50 μM. Here is the method:
In order to validate such an observation, T47D cells were incubated with varying concentration of 1,3-cPP in the range of 1-50 μM in a standard 5 day [3H]thymidine uptake assay.
T47D cells (clone 11;ER^+PR^+) were plated in 96 well plates in sets of 6, each containing 8×10^4 cells in a final volume of 200 μl per well. 1,3-cPP was added to the cultures to form a final concentration of 1-50 μM. Plates were incubated at 37° C. over the course of 5 days, where on each day, one plate was pulsed with [^3H]thymidine (5.7 Ci/mmol, Sigma, St. Louis, Mo.) overnight for the last 16 hours of the assay, and then frozen. The plates were harvested (Packard micromate 196 harvester, Merriden, Conn.) and radioactivity was scored on a 96 well plate reader (Packard 96, merriden, Conn.).

Assay [3] deals with progesterone receptor (PR) in MCF-7 cells. Nature of the assay: Western blot analysis of PR level in MCF-7 cells. Conditions: MCF-7 cells, from 10 μM upwards. The format is cell-based, human. Here is the method:
In an analogous manner, a set of experiments was preformed with MCF-7 cells for determining the level of PR upon incubation with varying concentrations of 1,3-cPP for a period of up to 11 days. Similar to the augmentation observed for ER-α, an increase of up to 2.8 and 2.2 fold expression of the wild type PR (MW 98,000), was observed from 10 μM 1,3-cPP and upwards on days 8 and 11, respecively (FIGS. 3A-D).
as §3
as §2, with “dishes. From the second day of culture onward, the cells were treated with various concentrations of 1,3cPP for up to 14 days. At the end of the incubation period, the medium was aspirated and the cells were washed 3 times with cold (4° C.) PBS.” for “dishes.”

Where only a bound is given, the exact number is not on record here.

On to `O=P1(O)OCCCO1` [1,3-cPP, 1,3-cyclic propanediol phosphate], for which the “level of wild type ER-α receptor” value in the assay on ER-α in T47D cells (T47D (ER+PR+) clone 11 cells, 6 days) is recorded as “sharp increase”. In the assay on ER-α in T47D cells (T47D clone 8 (ERlo PRlo), 3 days incubation), the “expression of variant ER-α (MW≈40,000)” value was “sharp increase”. Besides, the “increase in the level of wild type ER-α receptor (MW 70,000)” value is given as around 2 fold in assay [1] (day 6, Western blot densitometry) and around 3 fold in assay [1] (day 14, Western blot densitometry). The “increase in the intensity of a ER variant with an approximate MW of 50,000” value in assay [1] (day 11, Western blot) is 5 fold. Further, the “proliferation ([3H]thymidine uptake), persistence of effect” value in assay [2] (after the third day of 5 day assay) is recorded as “effect was lost after the third day”. In addition, the “proliferation ([3H]thymidine uptake) compared to control cultures” value in assay [2] (first 3 days of incubation, P values 0.0370, 0.0192 and 0.0238 on days 1-3) is recorded as “significantly inhibited proliferation”. Further, the “increase in expression of the wild type PR (MW 98,000)” value in assay [3] (day 8) is “up to 2.8 fold”; in assay [3] (day 11), at most 2.2 fold.
